Drawing on patent US5428059A, “Benzopyran derivatives and an anti-allergic agent possessing the same as the active ingredient” (Dainippon Ink & Chemicals, Inc., priority 1991, dated 1995), this text covers inhibition in vivo for 33 compounds.

This assay deals with Hartley-type male guinea pigs. The assay can be described thus: Guinea Pig Homogeneous Skin Passive Anaphylaxis Assay (PCA reaction). The format is in vivo, guinea pig (Hartley-type). The settings on record: Cavia porcellus, 10 mg/kg oral, 48 h after sensitization, read-out: Allergic reaction inhibitory index (%). The gist of the method:
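Inhibition % is derived from Evans Blue leakage area (mm^2, product of spot diameters) read 30 min after i.v. OVA/dye challenge. Beforehand, male Hartley guinea pigs (250~300 g) were passively sensitized intradermally with 120-fold-diluted anti-OVA serum and, after 48 h, received test compound 10 mg/kg p.o.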
Turning to `CC(C)=CCC/C(C)=C/COc1ccc2c(O)c(OC(=O)c3ccccc3)c(=O)oc2c1` [Compound 74, 3-(benzoyloxy)-4-hydroxy-7-(geranyloxy)-2H-1-benzopyran-2-one], the inhibition in vivo at 10 mg/kg amounted to 34%. The same measure for `CCCCCCCCCCOc1c(OC(=O)c2ccccc2)c2c(OC)cccc2oc1=O` [Compound 202, 3-(decyloxy)-4-(benzoyloxy)-5-(methoxy)-2H-1-benzopyran-2-one]: 30%; for `COc1ccc2c(OC(=O)c3ccccc3)c(OC)c(=O)oc2c1` [Compound 30, 3,7-(dimethoxy)-4-(benzoyloxy)-2H-1-benzopyran-2-one]: 31%; for `CC(C)=CCC/C(C)=C/COc1cccc2oc(=O)c(O)c(O)c12` [Compound 245, 3,4-(dihydroxy)-5-(geranyloxy)-2H-1-benzopyran-2-one]: 37%. Then `COc1ccc2c(O)c(O)c(=O)oc2c1` [Compound 28, 3,4-dihydroxy-7-(methoxy)-2H-1-benzopyran-2-one], with 53%. As to `CC(C)Oc1cccc2c(O)c(O)c(=O)oc12` [Compound 130, 3,4-(dihydroxy)-8-(isopropoxy)-2H-1-benzopyran-2-one], the inhibition in vivo at 10 mg/kg turned out to be 39%.

As for `COc1ccc2c(OC(C)=O)c(O)c(=O)oc2c1` [Compound 31, 3-hydroxy-4-(acetoxy)-7-(methoxy)-2H-1-benzopyran-2-one], the inhibition in vivo at 10 mg/kg came to 38%.

For the compound `CC(C)=CCC/C(C)=C/COc1c(O)c(=O)oc2c(OC(C)C)cccc12` [Compound 139, 3-hydroxy-4-(geranyloxy)-8-(isopropoxy)-2H-1-benzopyran-2-one], the inhibition in vivo at 10 mg/kg was determined as 33%.

With `CCCCCCCCCCOc1cccc2oc(=O)c(OC(C)=O)c(OC(C)C)c12` [Compound 235, 3-(acetoxy)-4-(isopropoxy)-5-(decyloxy)-2H-1-benzopyran-2-one], the inhibition in vivo at 10 mg/kg was determined as 30%. With `CCCCCCCCCCOc1c(OC)c(=O)oc2cccc(O)c12` [Compound 184, 3-(methoxy)-4-(decyloxy)-5-hydroxy-2H-1-benzopyran-2-one], the inhibition in vivo at 10 mg/kg is 33%. The same measure for `CC(C)=CCC/C(C)=C/COc1c(O)c(=O)oc2cc(OC(C)C)ccc12` [Compound 54, 3-hydroxy-4-(geranyloxy)-7-(isopropoxy)-2H-1-benzopyran-2-one]: 32%; for `COc1c(O)c(=O)oc2cc(OC(C)C)ccc12` [Compound 49, 3-hydroxy-4-(methoxy)-7-(isopropoxy)-2H-1-benzopyran-2-one]: 36%. The same measure for `COc1cccc2c(O)c(O)c(=O)oc12` [Compound 111, 3,4-(dihydroxy)-8-(methoxy)-2H-1-benzopyran-2-one]: 38%. Then `COc1ccc2c(O)c(OC/C=C(\C)CCC=C(C)C)c(=O)oc2c1` [Compound 37, 3-(geranyloxy)-4-hydroxy-7-(methoxy)-2H-1-benzopyran-2-one], with 40%; and `CC(C)=CCC/C(C)=C/COc1c(OC(C)C)c(=O)oc2c(OC/C=C(\C)CCC=C(C)C)cccc12` [Compound 172, 3-(isopropoxy)-4,8-(digeranyloxy)-2H-1-benzopyran-2-one], with 30%.

Turning to `CC(C)=CCC/C(C)=C/COc1c(OC(C)C)c2cccc(OC(C)C)c2oc1=O` [Compound 140, 3-(geranyloxy)-4,8-(diisopropoxy)-2H-1-benzopyran-2-one], the inhibition in vivo at 10 mg/kg is 30%. Then `CC(C)=CCC/C(C)=C/COc1c(O)c2cccc(O)c2oc1=O` [Compound 102, 3-(geranyloxy)-4,8-(dihydroxy)-2H-1-benzopyran-2-one], with 35%. For `CC(=O)Oc1c(OC/C=C(\C)CCC=C(C)C)c(=O)oc2c(OC/C=C(\C)CCC=C(C)C)cccc12` [Compound 169, 3,8-(digeranyloxy)-4-(acetoxy)-2H-1-benzopyran-2-one], the inhibition in vivo at 10 mg/kg worked out at 30%.

On to `COc1c(OC(C)=O)c2cccc(O)c2oc1=O` [Compound 101, 3-(methoxy)-4-(acetoxy)-8-hydroxy-2H-1-benzopyran-2-one], for which the inhibition in vivo at 10 mg/kg amounted to 30%. With `CC(C)=CCC/C(C)=C/COc1c(O)c(=O)oc2cccc(OC(C)C)c12` [Compound 220, 3-hydroxy-4-(geranyloxy)-5-(isopropoxy)-2H-1-benzopyran-2-one], the inhibition in vivo at 10 mg/kg is 30%. For the compound `CC(=O)Oc1c(OC/C=C(\C)CCC=C(C)C)c(=O)oc2cccc(OC/C=C(\C)CCC=C(C)C)c12` [Compound 255, 3,5-(digeranyloxy)-4-(acetoxy)-2H-1-benzopyran-2-one], the inhibition in vivo at 10 mg/kg turned out to be 33%. The same measure for `CC(C)Oc1c(O)c(=O)oc2c(OC(C)C)cccc12` [Compound 134, 3-hydroxy-4,8-(disopropoxy)-2H-1-benzopyran-2-one]: 30%. As to `CC(=O)Oc1c(O)c(=O)oc2cccc(OC(C)C)c12` [Compound 212, 3-hydroxy-4-(acetoxy)-5-(isopropoxy)-2H-1-benzopyran-2-one], the inhibition in vivo at 10 mg/kg came to 37%.

As to `CC(C)=CCC/C(C)=C/COc1c(OC(C)C)c(=O)oc2cccc(O)c12` [Compound 192, 3-(isopropoxy)-4-(geranyloxy)-5-hydroxy-2H-1-benzopyran-2-one], the inhibition in vivo at 10 mg/kg was found to be 37%. The same measure for `COc1cccc2oc(=O)c(O)c(OC/C=C(\C)CCC=C(C)C)c12` [Compound 204, 3-hydroxy-4-(geranyloxy)-5-(methoxy)-2H-1-benzopyran-2-one]: 30%. The same measure for `CCCCCCCCCCOc1cccc2oc(=O)c(OC)c(OC(=O)c3ccccc3)c12` [Compound 236, 3-(methoxy)-4-(benzoyloxy)-5-(decyloxy)-2H-1-benzopyran-2-one]: 31%; for `CCCCCCCCCCOc1ccc2c(O)c(O)c(=O)oc2c1` [Compound 59, 3,4-(dihydroxy)-7-(decyloxy)-2H-1-benzopyran-2-one]: 47%. The same measure for `CC(C)=CCC/C(C)=C/COc1cccc2oc(=O)c(OC(=O)c3ccccc3)c(OC(C)C)c12` [Compound 251, 3-(benzoyloxy)-4-(isopropoxy)-5-(geranyloxy)-2H-1-benzopyran-2-one]: 30%. For `CC(=O)Oc1c(OC(=O)c2ccccc2)c(=O)oc2cccc(OC/C=C(\C)CCC=C(C)C)c12` [Compound 247, 3-(benzoyloxy)-4-(acetoxy)-5-(geranyloxy)-2H-1-benzopyran-2-one], the inhibition in vivo at 10 mg/kg stood at 34%. Then `CC(C)=CCC/C(C)=C/COc1cccc2oc(=O)c(OC(=O)c3ccccc3)c(O)c12` [Compound 244, 3-(benzoyloxy)-4-hydroxy-5-(geranyloxy)-2H-1-benzopyran-2-one], with 33%. The same measure for `CCCCOc1cccc2c(O)c(OC(=O)c3ccccc3)c(=O)oc12` [Compound 127, 3-(benzoyloxy)-4-hydroxy-8-(butyloxy)-2H-1-benzopyran-2-one]: 34%. The same measure for `CC(C)=CCC/C(C)=C/COc1c(O)c(=O)oc2cccc(O)c12` [Compound 188, 3,5-(dihydroxy)-4-(geranyloxy)-2H-1-benzopyran-2-one]: 32%; for `CCCCCCCCCCOc1c(O)c(=O)oc2ccc(O)cc12` [Compound 268, 3,6-(dihydroxy)-4-(decyloxy)-2H-1-benzopyran-2-one]: 33%.
